Results published in patent publication US7049309B2, “3-Thia-4-arylquinolin-2-one potassium channel modulators” (Bristol-Myers Squibb Company, priority 2003, dated 2006).

Tests used:
[1] = test system: cloned mammalian (mSlo or hSlo) BK channels heterologously expressed in Xenopus oocytes; experiment: Assay for BK channel openers: two-electrode voltage clamp of BK-mediated outward current in Xenopus oocytes; type: cell-based; conditions: percent increase over BK current in controls, voltage step to +140 mV, IBTX-sensitive current
Description: The ability of the compounds of the invention to open BK channels and increase whole-cell outward (K^+) BK-mediated currents was assessed under voltage-clamp conditions by determining their ability to increase cloned mammalian (mSlo or hSlo) BK-mediated outward current heterologously expressed in Xenopus oocytes [Butler, A., et al., Science 1993, 261, 221–224; Dworetzky, S. I., et al., Mol. Brain Res. 1994, 27, 189–193; Gribkoff, V. K., et al., Mol. Pharmacol. 1996, 50, 206–217]. The two BK constructs employed represent nearly structurally identical homologous proteins, and have proven to be pharmacologically indistinguishable in our tests. To isolate BK current from native (background, non-BK) current, the specific and potent BK channel-blocking toxin iberiotoxin (IBTX) [Galvez, A., et al., J. Biol. Chem. 1990, 265, 11083–11090] was employed at a supramaximal concentration, e.g., 50–100 nanomolar (“nM”). The relative contribution of BK channel-mediated current to total outward current was determined by subtraction of the current remaining in the presence of IBTX (non-BK current) from the current profiles obtained in all other experimental conditions (control, drug, and wash) [Gribkoff, V. K. et al., Mol. Pharmacol. 1996, 50, 206–217]. […] All compounds were tested in 5–10 oocytes and are reported at the indicated concentration of 20 micromolar (“μM”) (or as otherwise indicated); the effect of the selected compounds of the invention on BK current was expressed as the percent of control IBTX-sensitive current at a single transmembrane voltage (+140 mV) and is listed in Table 1. Recordings were accomplished using standard two-electrode voltage clamp techniques [Stuhmer, W., et al., Methods in Enzymology, 1992, 207, 319–339]; voltage-clamp protocols consisted of 500–750 milliseconds (“ms”) duration step depolarizations, from a holding potential of −60 mV, to a final voltage up to +140 mV in 20 mV steps. The experimental media (modified Barth's solution) consisted of millimolar (“mM”): NaCl (88), NaHCO3 (2.4), KCl (1.0), HEPES (10), MgSO4 (0.82), Ca(NO3)2 (0.33), CaCl2 (0.41); pH 7.5.

[2] = test system: rat small intestine (ileum) segments; experiment: Rat small intestine (ileum) strip relaxation (nifedipine-sensitive force); parameters: species or system rat (Sprague Dawley); conditions: integral of nifedipine-sensitive force pre- and 30 min post-compound; compound concentration not given
Text: The ability of the compounds of the invention to relax rat small intestine tissue as a model for the treatment of irritable bowel syndrome is described as follows. Male rats (Harlan, Sprague Dawley, 250–350 g) were sacrificed by decapitation. A portion of small intestine (ileum) was removed and the attached connective tissues and intestinal contents removed. The ileum was cut into segments of ≧1 cm in length. The segments were mounted longitudinally between fixed hooks in organ baths containing warm (37° C.) physiological salt solution (composition in mM: NaCl 118.4, KCl 4.7, KH2PO4 1.2, MgSO4 1.2, CaCl2 1.8, Glucose 10.1, NaHCO3 25; gassed with 95% O2/5% CO2, pH 7.4). A stable tension of ˜1.5 g was maintained in the tissue segments during the equilibration period of 45 minutes. Changes in muscle tension were measured with isometric force transducers (Grass, FT-03C) and recorded using AcqKnowledge data acquisition system (AcqKnowledge for MP100WS, Biopac Systems Inc., Goleta, Calif.). Compound or vehicle was added in the baths for 30 minutes. “Zero” active force was established at the end of the experiment using nifedipine (20 μM). The effects of compounds or vehicle on force was determined by measuring the integral of nifedipine-sensitive force (including resting tone and spontaneous contractions) pre- and 30 min post-compound (or vehicle) addition. Results are expressed as the percentage inhibition of force. DMSO vehicle inhibited force (integral) by −0.6±3.0% (n=25).

Structure (SMILES)	% MaxiK opening ([1]; at 20 μM) [%]	% inhibition of force (RSI strips) [2] [%]	% MaxiK opening ([1]; at 1 μM)
CN1CCN(CCC(O)CSc2c(-c3cc(Cl)ccc3O)c3cc(C(F)(F)F)ccc3[nH]c2=O)CC1 (stereo not shown) [Example 4, 4-(5-Chloro-2-hydroxyphenyl)-3-[[2-hydroxy-4-(4-methyl-1-piperazinyl)butyl]thio]-6-(trifluoromethyl)-2(1H)-quinolinone]	515	–	–
CCN(CC)CC(O)CSc1c(-c2cc(Cl)ccc2O)c2cc(C(F)(F)F)ccc2[nH]c1=O (stereo not shown) [Example 74, 4-(5-Chloro-2-hydroxyphenyl)-3-[[3-(diethylamino)-2-hydroxypropyl]thio]-6-(trifluoromethyl)-2(1H)-quinolinone]	192	46	–
COc1ccc(Cl)cc1-c1c(SCC(O)CN2CCN(CCO)CC2)c(=O)[nH]c2ccc(C(F)(F)F)cc12 (stereo not shown) [Example 79, 4-(5-Chloro-2-methoxyphenyl)-3-[[2-hydroxy-3-[4-(2-hydroxyethyl)-1-piperazinyl]propyl]thio]-6-(trifluoromethyl)-2(1H)-quinolinone]	150	10	–
O=c1[nH]c2ccc(C(F)(F)F)cc2c(-c2cc(Cl)ccc2O)c1SCC(O)CN1CCCC1 (stereo not shown) [Example 81, 4-(5-Chloro-2-hydroxyphenyl)-3-[[2-hydroxy-3-(1-pyrrolidinyl)propyl]thio]-6-(trifluoromethyl)-2(1H)-quinolinone]	192	–	–
O=c1[nH]c2ccc(C(F)(F)F)cc2c(-c2cc(Cl)ccc2O)c1SCC(O)CN1CCOCC1 (stereo not shown) [Example 82, 4-(5-Chloro-2-hydroxyphenyl)-3-[[2-hydroxy-3-(4-morpholinyl)propyl]thio]-6-(trifluoromethyl)-2(1H)-quinolinone]	292	–	–
O=c1[nH]c2ccc(C(F)(F)F)cc2c(-c2cc(Cl)ccc2O)c1SCC(O)CN1CCN(CCO)CC1 (stereo not shown) [Example 84, 4-(5-Chloro-2-hydroxyphenyl)-3-[[2-hydroxy-3-[4-(2-hydroxyethyl)-1-piperazinyl]propyl]thio]-6-(trifluoromethyl)-2(1H)-quinolinone]	287	55	–
O=c1[nH]c2ccc(C(F)(F)F)cc2c(-c2cc(Cl)ccc2O)c1SCC(O)CN1CCSCC1 (stereo not shown) [Example 85, 4-(5-Chloro-2-hydroxyphenyl)-3-[[2-hydroxy-3-(4-thiomorpholinyl)propyl]thio]-6-(trifluoromethyl)-2(1H)-quinolinone]	319	40	–
CN(C)CCN1CCN(CC(O)CSc2c(-c3cc(Cl)ccc3O)c3cc(C(F)(F)F)ccc3[nH]c2=O)CC1 (stereo not shown) [Example 86, 4-(5-Chloro-2-hydroxyphenyl)-3-[[3-[4-[2-(dimethylamino)ethyl]-1-piperazinyl]-2-hydroxypropyl]thio]-6-(trifluoromethyl)-2(1H)-quinolinone]	124	–	–
CN(C)CCCN(C)CC(O)CSc1c(-c2cc(Cl)ccc2O)c2cc(C(F)(F)F)ccc2[nH]c1=O (stereo not shown) [Example 87, 4-(5-Chloro-2-hydroxyphenyl)-3-[[3-[[3-(dimethylamino)propyl]methylamino]-2-hydroxypropyl]thio]-6-(trifluoromethyl)-2(1H)-quinolinone]	214	–	–
COc1ccc(Cl)cc1-c1c(SCC(O)CN2CCSCC2)c(=O)[nH]c2ccc(C(F)(F)F)cc12 (stereo not shown) [Example 90, 4-(5-Chloro-2-methoxyphenyl)-3-[[2-hydroxy-3-(4-thiomorpholinyl)propyl]thio]-6-(trifluoromethyl)-2(1H)-quinolinone]	97	–	–
COc1ccc(Cl)cc1-c1c(SCC(O)CN2CCC(O)C2)c(=O)[nH]c2ccc(C(F)(F)F)cc12 (stereo not shown) [Example 91, 4-(5-Chloro-2-methoxyphenyl)-3-[[2-hydroxy-3-(3-hydroxy-1-pyrrolidinyl)propyl]thio]-6-(trifluoromethyl)-2(1H)-quinolinone]	125	–	–
COc1ccc(Cl)cc1-c1c(SCC(O)CN2CCN(c3ncccn3)CC2)c(=O)[nH]c2ccc(C(F)(F)F)cc12 (stereo not shown) [Example 92, 4-(5-Chloro-2-methoxyphenyl)-3-[[2-hydroxy-3-[4-(2-pyrimidinyl)-1-piperazinyl]propyl]thio]-6-(trifluoromethyl)-2(1H)-quinolinone]	–	–	85^⋄ %
COc1ccc(Cl)cc1-c1c(SCC(O)CN2CCN(C(C)=O)CC2)c(=O)[nH]c2ccc(C(F)(F)F)cc12 (stereo not drawn) [Example 97, 4-Acetyl-alpha-[[[4-(5-chloro-2-methoxyphenyl)-1,2-dihydro-2-oxo-6-(trifluoromethyl)-3-quinolinyl]thio]methyl]-1-piperazineethanol]	192	–	–
COc1ccc(Cl)cc1-c1c(SCC(O)CN2CCN(C)CC2)c(=O)[nH]c2ccc(C(F)(F)F)cc12 (stereo not shown) [Example 102, 4-(5-Chloro-2-methoxyphenyl)-3-[[2-hydroxy-3-(4-methyl-1-piperazinyl)propyl]thio]-6-(trifluoromethyl)-2(1H)-quinolinone]	163	–	–
COc1ccc(Cl)cc1-c1c(SCC(O)CN2CCC(C)CC2)c(=O)[nH]c2ccc(C(F)(F)F)cc12 (stereo not shown) [Example 107, 4-(5-Chloro-2-methoxyphenyl)-3-[[2-hydroxy-3-(4-methyl-1-piperidinyl)propyl]thio]-6-(trifluoromethyl)-2(1H)-quinolinone]	115	–	–
